The values that follow come from patent US20160193316A1 (priority 1994, published 2016).

The target in assay [1] is HLA-A*0101 (Homo sapiens, UniProt P04439, A114D/A174V/A182V/D101N/D185E/E176A/E190D/L180R/Q94H/R68K/S129P/T187R/V100A/V91M/W191G). Type of assay: binding.
Assay [2] deals with T1, HLA-A*0301 (Homo sapiens, UniProt P04439).
T1 construct: endogenous in cells; host or cells: GM3107
Put plainly: HLA class I peptide binding assay. As to conditions: Malaria A3 motif peptides, Table XVI; binding value to HLA-A*0301, unit not given.

Assay [3] addresses HLA-A*1101 (Homo sapiens, UniProt P04439, A114D/D185E/E176A/F33Y/L180Q/S129P/T187R). Put plainly: HLA class I peptide binding assay.
Assay [4] has as its target T2, DRB1*1302 (DR6w19) (Homo sapiens, UniProt P01903+P01911, A100E/A169T/K41T/L162R/M171V/P40S/Q125H/Q178H/Q39Y/Q99D/R42S/S66N/T262R/V115G/W38E/Y61H).
T2 construct: endogenous in cells; host or cells: H0301
Put plainly: HLA class II peptide binding assay. As to conditions: Table XIXb; DR6w19.

Assay [5] concerns the target T3, DRB1*0901 (DR9) (Homo sapiens, UniProt P01903+P01911, A100R/A103E/D57H/D86V/F55Y/F60I/F76Y/I96F/K127E/L162R/M171V/P40D/Q125H/Q99R/R33Q/R42F/S133A/S66N/T210M/V115G/W38K/Y107V/Y59G/Y89S).
T3 construct: endogenous in cells; host or cells: HID
Nature of the assay: biochemical. It is filed as binding.

The target in assay [6] is T4, DRB1*1501 (DR2w2β1) (Homo sapiens, UniProt P01903+P01911).
T4 construct: expressed in transfected cells; host or cells: L466.1 (fibroblasts)
Nature of the assay: HLA class II peptide binding assay. The note with it: Table XIXb; DR2w2β1.

The target of assay [7] is T5, DRB1*0301 (DR3) (Homo sapiens, UniProt P01903+P01911, A100K/A102G/A103R/A169T/F55Y/I96L/K41T/L162R/M171V/P40S/Q125H/Q178H/Q39Y/R42S/S66N/T106N/T262R/W38E/Y61H).
T5 construct: endogenous in cells; host or cells: MAT
Nature of the assay: HLA class II peptide binding assay (pH 4.5). The note with it: for DR3 binding information: DR3a motif peptides, unit not given, exemplary 15-mer containing the core sequence.

Assay [8] addresses T6, DRB1*0802 (DR8w2) (Homo sapiens, UniProt P01903+P01911, A100R/A103L/A169T/F76Y/H45Y/I96F/K41T/L162R/M171V/P40S/Q125H/Q178H/Q39Y/Q99D/R218S/R42G/S66Y/V115G/W38E).
T6 construct: endogenous in cells; host or cells: OLL
Nature of the assay: biochemical. It is filed as binding.

Assay [9] has as its target T7, DRB1*1201 (DR5w12) (Homo sapiens, UniProt P01903+P01911, A100R/A169T/D57E/D86V/F55L/H45Y/K41T/L162R/M171V/P40S/Q125H/Q178H/Q39Y/Q99D/R42G/S66L/T262R/V114A/V67L/W38E/Y59H/Y61H/Y89S).
T7 construct: endogenous in cells; host or cells: Herluf
Nature of the assay: HLA class II peptide binding assay. As to conditions: Table XIXb; DR5w12.

Assay [10] addresses HLA-A*2402 (Homo sapiens, UniProt P04439, D101N/D140Y/D185E/E176V/E190D/F33S/G103R/G107R/I119L/I121M/I306V/K335N/L105A/L180Q/L300P/N151K/N90K/Q86E/Q94H/R106L/R138H/R89G/T104I/T345S/V100E/W191G/Y123F). Put plainly: HLA class I peptide binding assay.
Assay [11] concerns the target T8, DRB1*0401 (DR4w4) (Homo sapiens, UniProt P01903+P01911, A100K/A169T/F76Y/I96L/K127E/L162R/M171V/N62H/P40V/Q125Y/R42H/S133A/S149N/S66Y/V115G/V209L/W38E).
T8 construct: endogenous in cells; host or cells: Preiss
Nature of the assay: HLA class II peptide binding assay. As to conditions: Table XIXb; DR4w4.

The target of assay [12] is T9, DRB1*0701 (DR7) (Homo sapiens, UniProt P01903+P01911, A100R/A102G/A103Q/D57E/D86V/E43K/F76Y/K127E/L162R/M171V/P40G/Q125H/Q99D/R33Q/R42Y/R54Q/S133A/S66F/T210M/V115G/Y107V/Y59L/Y89S).
T9 construct: endogenous in cells; host or cells: Pitout
Put plainly: biochemical. It is filed as binding.

For assay [13], the target named is T10, DRB5*0101 (DR2w2β2) (Homo sapiens, UniProt P01903+Q30154).
T10 construct: expressed in transfected cells; host or cells: L416.3 (fibroblasts) or GM3107
Type of assay: binding.

Assay [14] addresses T11, DRB1*0405 (DR4w15) (Homo sapiens, UniProt P01903+P01911, A100R/A169T/D86S/F76Y/I96L/K127E/L162R/M171V/N62H/P40V/Q125Y/R42H/S133A/S149N/S66Y/V115G/V209L/W38E).
T11 construct: endogenous in cells; host or cells: KT3
Nature of the assay: HLA class II peptide binding assay. As to conditions: Table XIXb; DR4w15.

Assay [15] deals with T12, DRB1*0101 (DR1) (Homo sapiens, UniProt P01903+P01911, A100R/D57E/F55L/F60I/F76Y/I96L/L162R/M171V/P40L/Q125E/R42F/V115G/Y59C).
T12 construct: endogenous in cells; host or cells: LG2
Nature of the assay: HLA class II peptide binding assay. The note with it: Table XIXb, Malaria Super Motif Peptides With Binding Data; DR1.

Assay [16] addresses T13, DRB1*1101 (DR5w11) (Homo sapiens, UniProt P01903+P01911, A100R/A169T/A87E/I96F/K41T/L162R/M171V/P40S/Q125H/Q178H/Q39Y/Q99D/R42S/S66Y/T262R/V115G/W38E).
T13 construct: endogenous in cells; host or cells: Sweig
Nature of the assay: biochemical. Type of assay: binding.

Assay [17] has as its target T14, HLA-B*0702 (Homo sapiens, UniProt P01889).
T14 construct: endogenous in cells; host or cells: GM3107
Put plainly: HLA class I peptide binding assay. The note with it: Malaria B07 super motif peptides; binding value, no unit.

Assay [18] has as its system T helper lymphocytes. The note with it: regardless of HLA type, WO 95/07707; cited from earlier work.
Assay [19] concerns HLA-A3-supertype molecules (A3, A11, A*3101, A*3301, A*6801). Type of assay: binding, human.
For assay [20], the target named is HLA-A*3301 (Homo sapiens, UniProt P04439, A270S/D185E/E176V/E277Q/E87N/F33T/G231S/H175R/I121M/I218V/I322F/K168Q/K210R/L300P/L318F/M331R/P217A/Q86R/Q94H/R138Q/T323A/T345S/T97I/V358M/Y195H). Put plainly: HLA class I peptide binding assay.
Assay [21] deals with HLA-A*3101 (Homo sapiens, UniProt P04439, A270S/D185E/E176V/E277Q/F33T/G231S/G80R/H175R/I121M/I218V/I322F/K168Q/L300P/L318F/M331R/P217A/Q94H/R138Q/T323A/T345S/T97I/V358M). Nature of the assay: HLA class I peptide binding assay.

Like-named read-outs stand apart in the source and are kept apart here. No end group written: not given here.

Regarding PSDGKCNLY, in assay [1], the “A*010I” value is on record as 0.5400 and the “A*0101 (binding information)” value is listed as 0.5400. Moreover, the “A*0301 (binding information)” value in [2] amounted to 0.0002. In addition, the “A*1101 binding information” value in assay [3] (Table XVII, malaria A11 motif peptides, binding value unit not given) is listed as 0.0002.
For FQDEENIGIY, the “A*0101 (binding information)” value in assay [1] stood at 1.1000.
FYFILVNLL: the DR6w19 binding data in assay [4] is recorded as 0.0003. The same substance gave a DR9 binding data in assay [5] of -0.0003. Moreover, in [6], the DR2w2β1 binding data came to 0.0040. Besides, the DR3 binding data in assay [7] (Table XIXb, DR3) is on record as -0.0008. In assay [8], this substance showed a DR8w2 binding data of 0.0010. This substance had a DR5w12 binding data in assay [9] of 0.0006. The HLA-A24 binding value in [10] (HLA class I binding value as printed in column headed A*201 of Table X, unit not given) was found to be 7.5000. For the same substance, the “A*2401 (binding information, Malaria A24 motif peptides)” value in assay [10] (HLA-A*2401 binding value as printed, unit not given) came to 7.5000. The same substance gave a DR4w4 binding data in assay [11] of 0.0210. Further, in assay [12], the DR7 binding data was 0.0020. In assay [13], this substance displayed a DR2w2β2 binding data of 0.0044. The DR4w15 binding data in [14] is -0.0009. In assay [15], this substance displayed a DR1 binding data of 0.0029. In assay [16], this substance came in with a DR5w11 binding data of 0.0011.
With IPEDSEKEV, the “B*0702 (binding information)” value in [17] is 0.0001. This substance also had a DR3 binding information in [7] of -0.0130.
Regarding YYIPHQSSL, in assay [10], the “A*201 (binding information)” value was found to be 4.3000 and the “A*2401 (binding information, Malaria A24 motif peptides)” value is given as 4.3000.
Regarding HPSDGKCNLY, the “B*0702 (binding information)” value in [17] is given as 0.0001. Also, the “A*0101 (binding information)” value in [1] was 0.0260.
Take LPSENERGY: the “B*0702 (binding information)” value in assay [17] is recorded as 0,0001. The “A*0101 (binding information)” value in assay [1] is recorded as 0.6700. In assay [7], this substance registered a DR3 binding information of -0.0033.
For KYLVIVFLI, in assay [10], the “A*201 (binding information)” value was found to be 4.6000 and the “A*2401 (binding information, Malaria A24 motif peptides)” value turned out to be 4.6000.
For the substance aKXVWANTLKAAa, in [18], the “Stimulation of T helper lymphocyte response” value is listed as “stimulate the response of T helper lymphocytes from most individuals”.
Consider PYAQEPAPF, for which the HLA-A24 binding value in assay [10] (Table X, Malaria A24 Super Motif Peptides With Binding Information, unit not given) was 0.0370.
Consider FILVNLLIFH [Peptide 1167.46], for which the Alleles bound in [19] (A3-supermotif CTL epitopes, five A3-supertype alleles (Table XXVII)) is recorded as 2; in assay [19] (A3-supertype peptides tested for binding to A*03, A*11, A*31011, A*3301, A*6801), 2; in assay [19] (A3-supertype, tested on A*03, A*11, A*31011, A*3301, A*6801, unfixed parent peptide), 2. Further, the IC50 in assay [20] is 397 nM; in assay [21] it was 1960 nM; in assay [3], 1330 nM.
